# Values quoted from earlier work as cited in PMC7578299, “The antiviral effects of baloxavir marboxil against influenza A virus infection in ferrets” (Influenza and Other Respiratory Viruses, 2020).
# Test system: influenza virus
# Set-up: method as in PMID 30288682
# Conditions: patients, cited from earlier work
smiles,measurement,setting,value
"COC(=O)OCOc1c2n(ccc1=O)N([C@@H]1c3ccccc3SCc3c1ccc(F)c3F)[C@@H]1COCCN1C2=O [BXM, Baloxavir marboxil]",time within which infectious virus titers declined,single weight-based oral dose 40 or 80 mg,≤ 1 days
same,time to alleviation of symptoms (in words),vs placebo and OSP,superior compared with placebo but not significantly different from the effect of OSP treatment
